Among the data in ChEMBL document CHEMBL3886897, “Macrocyclic indole derivatives useful as hepatitis C virus inhibitors” (2016) are k off values, retold here.

The target in assay [1] is RNA-directed RNA polymerase (Hepacivirus hominis) (UniProt O39930).
Assay [2] has the same target. The source holds these as a separate data set.
Assay [3] shares this target. This is another data set of the same source.
Assay [4] has the same target. This is another data set of the same source.
Assay [5] shares this target. The source holds these as a separate data set.
Assay [6] shares this target. This is another data set of the same source.
For assay [7] the target is unchanged. This is another data set of the same source.
Assay [8] shares this target. This is another data set of the same source.
Assay [9] has the same target. This is another data set of the same source.
The target is the same in assay [10]. The source holds these as a separate data set.

Sequence of RNA-directed RNA polymerase (Hepacivirus hominis) (O39930 1-591): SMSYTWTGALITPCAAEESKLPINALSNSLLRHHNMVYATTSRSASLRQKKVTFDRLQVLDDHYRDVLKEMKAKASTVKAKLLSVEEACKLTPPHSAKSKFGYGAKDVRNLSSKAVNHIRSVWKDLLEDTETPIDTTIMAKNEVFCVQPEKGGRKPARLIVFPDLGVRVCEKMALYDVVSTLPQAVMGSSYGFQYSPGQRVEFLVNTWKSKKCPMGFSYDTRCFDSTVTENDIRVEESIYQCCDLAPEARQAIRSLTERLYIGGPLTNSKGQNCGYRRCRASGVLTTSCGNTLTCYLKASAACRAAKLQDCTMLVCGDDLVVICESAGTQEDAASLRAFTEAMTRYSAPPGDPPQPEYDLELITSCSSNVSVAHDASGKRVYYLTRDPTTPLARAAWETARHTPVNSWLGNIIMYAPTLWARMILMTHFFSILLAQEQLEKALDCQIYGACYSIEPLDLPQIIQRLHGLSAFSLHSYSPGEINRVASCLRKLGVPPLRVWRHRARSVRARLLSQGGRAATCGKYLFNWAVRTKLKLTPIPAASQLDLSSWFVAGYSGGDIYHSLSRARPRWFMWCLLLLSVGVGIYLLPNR

Compound `CN1CCCCCNC(=O)C2=Cc3ccc(Cl)cc3-c3c(C4CCCCC4)c4ccc(cc4n3C2)C(=O)NS1(=O)=O` came in with a k off in [1] of 0.0038 s⁻¹.
Still for that read-out and setting: the result for `COc1ccc2c(c1)C(C)=C1Cn3c-2c(C2CCCCC2)c2ccc(cc23)C(=O)NS(=O)(=O)N(C)CCOCCN(C)C1=O` reads 3.6e-05 s⁻¹.
Regarding `COc1ccc2c(c1)C=C1Cn3c-2c(C2CCCCC2)c2ccc(cc23)C(=O)NS(=O)(=O)N(C)CCOCCN(C)C1=O`, the k off came to 0.0001 s⁻¹ in [2]; 0.00097 s⁻¹ in assay [3]; 0.022 s⁻¹ in assay [4]; 0.00013 s⁻¹ in assay [5]; 7.6e-05 s⁻¹ in assay [6]; 0.00084 s⁻¹ in assay [7]. Also, the k off in assay [8] was found to be 0.022 s⁻¹; in assay [9] it was 0.00015 s⁻¹; in assay [10] it was 0.00015 s⁻¹; in [1] it was 9e-05 s⁻¹.
Turning to `CN1CCCCN(C)S(=O)(=O)NC(=O)c2ccc3c(C4CCCCC4)c4n(c3c2)CC(=Cc2ccc(Cl)cc2-4)C1=O`, the k off in assay [1] was found to be 0.0037 s⁻¹.
The same measure, in the same setting: the value for `COc1ccc2c(c1)C=C1Cn3c-2c(C2CCCCC2)c2ccc(cc23)C(=O)NS(=O)(=O)N(C(C)C)CCCCN(C)C1=O` was 6.6e-05 s⁻¹; that for `COc1ccc2c(c1)C=C1Cn3c-2c(C2CCCCC2)c2ccc(cc23)C(=O)NS(=O)(=O)N(C)CCCCN(C)C1=O` was 4.8e-05 s⁻¹; that for `COc1ccc2c(c1)C(C)=C1Cn3c-2c(C2CCCCC2)c2ccc(cc23)C(=O)NS(=O)(=O)N(C)CCCCN(C)C1=O` was 0.00016 s⁻¹.
Same read-out and setting: the result for `COc1ccc2c(c1)C=C1Cn3c-2c(C2CCCCC2)c2ccc(cc23)C(=O)NS(=O)(=O)NCCCCN(C)C1=O` reads 0.00031 s⁻¹.
The same measure, in the same setting: the value for `COc1ccc2c(c1)C=C1Cn3c-2c(C2CCCCC2)c2ccc(cc23)C(=O)NS(=O)(=O)N(C)CCCCNC1=O` was 4.1e-05 s⁻¹.
